Results: US9504684B2, “Syk inhibitors” (Gilead Sciences, Inc., priority 2014, dated 2016)
Structures can show the parent of a compound that is named as a salt.

Columns and labels:
[1] = tested on: human hepatocytes; experiment: Human Hepatocyte Stability Assay; type: in vitro ADME
Experimental: The human […] stability of the compounds as predicted hepatocyte clearance in L/hr/kg was assessed. Compounds to be tested were diluted to 200 μM (4 μl of 10 mM DMSO stock into 196 μl ACN:H2O (50:50). Propranolol was used as a positive control, and buffer only without hepatocytes as 0% control. These were further diluted 4 μl with 891 μl KHB buffer (InVitroGRO catalog number Z99074) to provide 2× dosing solution. To each well of 24 well plate, 250 μl of the 2× dosing solution was added to each well with 250 μl of hepatocytes cells (1×10^6 viable cells/ml per well) or KHB for control samples to achieve a final compound concentration of 1 μM during incubation. The final solvent concentration was 0.01% DMSO and 0.25% ACN. The culture plate was placed on a rocker and incubated at 37° C., 5% CO2. Samples were collected at time 0, 1, 3, and 6 hours. The loss of parent compound was determined using LC-MS methods against a standard curve.

[2] = cited from earlier work
[3] = in vivo; cited from earlier work
[4] = comparison table of Example 12, head prints "(units)", L/hr/kg per Example 11
[5] = predicted hepatocyte clearance, human hepatocytes, 1 μM compound

Row | SMILES | Hheps CL [1, 4] [mL/min/kg] | Hheps CL [1, 5] [mL/min/kg] | further results
1 | COc1ccc(Nc2nc(-c3cccc(N)c3)cn3ccnc23)cc1OC [6-(3-aminophenyl)-N-(3,4-dimethoxyphenyl)imidazo[1,2-a]pyrazin-8-amine, reference compound] | 4 |  | 
2 | Cc1ncc(-c2cn3ccnc3c(Nc3ccc(N4CCOCC4)cc3)n2)cc1N [6-(5-amino-6-methylpyridin-3-yl)-N-(4-morpholinophenyl)imidazo[1,2-a]pyrazin-8-amine, reference compound] | 13.3 |  | 
3 | Nc1cncc(-c2cn3ccnc3c(Nc3ccc(N4CCOCC4)cc3)n2)c1 [6-(5-aminopyridin-3-yl)-N-(4-morpholinophenyl)imidazo[1,2-a]pyrazin-8-amine, reference compound] | 11.3 |  | 
4 | COc1ccc(Nc2nc(-c3ccc(N)nc3)cn3ccnc23)cc1OC [6-(6-aminopyridin-3-yl)-N-(3,4-dimethoxyphenyl)imidazo[1,2-a]pyrazin-8-amine, reference compound] | 15 |  | 
5 | Cc1ncc(-c2cn3ccnc3c(Nc3ccc(N4CCN(C5COC5)CC4)cc3)n2)nc1N [Ex.-1, 6-(6-amino-5-methylpyrazin-2-yl)-N-(4-(4-(oxetan-3-yl)piperazin-1-yl)phenyl)imidazo[1,2-a]pyrazin-8-amine] | 2 | 2 | 
6 | Nc1cncc(-c2cn3ccnc3c(Nc3ccc(N4CCN(C5COC5)CC4)cc3)n2)n1 [Ex.-2, 6-(6-aminopyrazin-2-yl)-N-(4-(4-(oxetan-3-yl)piperazin-1-yl)phenyl)imidazo[1,2-a]pyrazin-8-amine] | 0.917 | 0.917 | 
7 | Nc1cncc(-c2cn3ccnc3c(Nc3ccc(N4CCO[C@@H](CO)C4)cc3)n2)n1 [Ex.-3, (R)-(4-(4-((6-(6-aminopyrazin-2-yl)imidazo[1,2-a]pyrazin-8-yl)amino)phenyl)morpholin-2-yl)methanol] | 1.5 | 1.5 | 
8 | CC[C@]1(O)C[C@H]2CN(CCc3c([nH]c4ccccc34)[C@@](C(=O)OC)(c3cc4c(cc3OC)N(C=O)[C@H]3[C@@](O)(C(=O)OC)[C@H](OC(C)=O)[C@]5(CC)C=CCN6CC[C@]43[C@@H]65)C2)C1 [Vincristine Sulfate, vincristine sulfate] |  |  | solubility in 95% ethanol ([2]; 95% ethanol): only slightly soluble; solubility in methanol ([2]; methanol): soluble in methanol; solubility in water ([2]; water): freely soluble
9 | CC[C@]1(O)C[C@@H]2CN(CCc3c([nH]c4ccccc34)[C@@](C(=O)OC)(c3cc4c(cc3OC)N(C)[C@H]3[C@@](O)(C(N)=O)[C@H](O)[C@]5(CC)C=CCN6CC[C@]43[C@@H]65)C2)C1 [Vindesine, vindesine] |  |  | serum half-life [3]: 24 h

Further lines, with some results ahead:

Row | Hheps CL [1, 4] [mL/min/kg] | Hheps CL [1, 5] [mL/min/kg] | SMILES | further results
10 | 1.3 | 1.3 | Cc1c(-c2cncc(N)n2)nc(Nc2ccc(N3CCN(C4COC4)CC3)cc2)c2nccn12 [Ex.-4, 6-(6-aminopyrazin-2-yl)-5-methyl-N-(4-(4-(oxetan-3-yl)piperazin-1-yl)phenyl)imidazo[1,2-a]pyrazin-8-amine] | 
11 | 1.2 | 1.2 | Nc1cncc(-c2cn3ccnc3c(Nc3ccc(N4CCN(C5COC5)CC4)c(OCCO)c3)n2)n1 [Ex.-5, 2-(5-((6-(6-aminopyrazin-2-yl)imidazo[1,2-a]pyrazin-8-yl)amino)-2-(4-(oxetan-3-yl)piperazin-1-yl)phenoxy)ethanol] | 
12 | 1.3 | 1.3 | Nc1cncc(-c2cn3ccnc3c(Nc3ccc(N4CCN(CC(CO)CO)CC4)cc3)n2)n1 [Ex.-6, 2-((4-(4-((6-(6-aminopyrazin-2-yl)imidazo[1,2-a]pyrazin-8-yl)amino)phenyl)piperazin-1-yl)methyl)propane-1,3-diol] | 
13 | 0.83 | 0.83 | Cc1ncc(-c2cn3ccnc3c(Nc3ccc(N4CCN(C5COC5)CC4)c(OCCO)c3)n2)nc1N [Ex.-7, 2-(5-((6-(6-amino-5-methylpyrazin-2-yl)imidazo[1,2-a]pyrazin-8-yl)amino)-2-(4-(oxetan-3-yl)piperazin-1-yl)phenoxy)ethanol] | 
